Reference: ChEMBL document CHEMBL3739390, “Plantadeprate A, a Tricyclic Monoterpene Zwitterionic Guanidium, and Related Derivatives from the Seeds of Plantago depressa” (2015)

Legend:
Hepatocyte [1] = test: Antihyperglycemic activity in Sprague-Dawley rat hepatocytes assessed as inhibition of glucose production at 40 uM after 6 hrs by glucose oxidase activity assay; type: functional
Hepatocyte [2] = test: Antihyperglycemic activity in Sprague-Dawley rat hepatocytes assessed as inhibition of glucose production at 2 mM after 6 hrs by glucose oxidase activity assay; type: functional
Saccharomyces cerevisiae = test: Inhibition of Saccharomyces cerevisiae alpha-glucosidase using 4-nitrophenyl alpha-glucopyranoside as substrate at 6.25 mM preincubated for 10 mins followed by substrate addition measured after 20 mins by spectrophotometric analysis
[3] = biological target: T1, Angiotensin-converting enzyme (Oryctolagus cuniculus) (UniProt P12822); test: Inhibition of rabbit lung ACE using hippuryl-histidyl-leucine as substrate assessed as hippuric acid formation at 10 mM by UPLC-MS analysis
T1 sequence (whole entry): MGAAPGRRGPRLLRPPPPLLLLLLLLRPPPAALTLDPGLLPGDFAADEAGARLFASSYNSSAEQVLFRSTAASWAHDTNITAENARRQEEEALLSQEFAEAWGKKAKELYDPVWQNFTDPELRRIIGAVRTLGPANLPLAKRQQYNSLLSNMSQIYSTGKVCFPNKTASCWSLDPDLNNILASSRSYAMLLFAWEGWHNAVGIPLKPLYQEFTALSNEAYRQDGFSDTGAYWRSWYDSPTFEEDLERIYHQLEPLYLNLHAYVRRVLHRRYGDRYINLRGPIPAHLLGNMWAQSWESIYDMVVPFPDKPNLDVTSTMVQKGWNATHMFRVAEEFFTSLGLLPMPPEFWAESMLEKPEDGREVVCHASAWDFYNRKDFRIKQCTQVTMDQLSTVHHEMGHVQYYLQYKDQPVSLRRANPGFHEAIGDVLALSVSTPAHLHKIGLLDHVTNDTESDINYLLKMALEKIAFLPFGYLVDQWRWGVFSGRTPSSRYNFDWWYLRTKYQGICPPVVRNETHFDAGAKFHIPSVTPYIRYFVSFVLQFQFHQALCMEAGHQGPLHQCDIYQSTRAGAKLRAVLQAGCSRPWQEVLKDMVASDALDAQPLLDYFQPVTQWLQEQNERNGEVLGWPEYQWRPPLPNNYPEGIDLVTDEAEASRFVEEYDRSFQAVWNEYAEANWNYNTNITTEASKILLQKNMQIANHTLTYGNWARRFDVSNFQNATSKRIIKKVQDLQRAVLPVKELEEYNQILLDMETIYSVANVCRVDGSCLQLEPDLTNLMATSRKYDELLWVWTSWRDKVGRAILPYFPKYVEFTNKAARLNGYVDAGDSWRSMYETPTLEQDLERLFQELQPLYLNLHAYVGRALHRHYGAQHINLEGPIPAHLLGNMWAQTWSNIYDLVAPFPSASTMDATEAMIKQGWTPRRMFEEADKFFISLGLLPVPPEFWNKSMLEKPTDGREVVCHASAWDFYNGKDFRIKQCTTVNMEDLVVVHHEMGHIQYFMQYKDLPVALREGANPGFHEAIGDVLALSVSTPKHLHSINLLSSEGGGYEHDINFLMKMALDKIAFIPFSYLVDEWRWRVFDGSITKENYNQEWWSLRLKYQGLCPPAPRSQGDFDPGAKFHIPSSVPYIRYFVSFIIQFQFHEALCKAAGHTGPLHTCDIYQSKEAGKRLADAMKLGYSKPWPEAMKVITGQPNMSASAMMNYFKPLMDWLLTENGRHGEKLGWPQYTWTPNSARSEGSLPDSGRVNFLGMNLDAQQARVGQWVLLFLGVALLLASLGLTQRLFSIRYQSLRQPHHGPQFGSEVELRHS

## CC(C)=CCC[C@@H](C(=O)O)[C@@H]1CNC(=N)N1
Hepatocyte [1]
  inhibition at 40 µM: 12.5%

## CN(C)C(=N)NC(=N)N [METFORMIN]
Hepatocyte [2]
  inhibition at 2000 µM: 25%

## CC(C)=CCC[C@@H](C(=O)O)[C@@H]1CN(CC(O)CCO)C(=N)N1 (stereo partly specified)
Hepatocyte [1]
  inhibition at 40 µM: 18.5%

## CC1(C)C[C@]2(O)C[C@@H](C(=O)[O-])[C@@H]3CNC(=[N+]32)N1
Saccharomyces cerevisiae
  inhibition: 20%
[3]
  inhibition: 26%
Hepatocyte [1]
  inhibition at 40 µM: 8.2%
